# Key:
# [1] = test system: tubulin; assay: Colchicine binding assay; set-up: species or system bovine; settings: for ICB (% Inhibition) (inhibition of colchicine binding): evaluated only when polymerization IC50 ≤ 1 μM, 5.0 μM inhibitor, 5.0 μM [3H]colchicine, 1.0 μM tubulin
# Description: Electrophoretically homogeneous bovine brain tubulin was purified as described in E. Hamel, et al. Biochemistry 23:4173 (1984). Combretastatin A-4 was a generous gift of Dr. G. R Pettit, Arizona State University.
# Incubation was for 20 min at 37° C. Each reaction mixture was filtered under reduced vacuum through a stack of two DEAE-cellulose paper filters, washed with water, and radioactivity quantitated in a liquid scintillation counter.
# […]. with 36' vs. 33'-35', and with 46' vs. 43'-45').
# [2] = test system: tubulin; assay: Tubulin polymerization assay; type: biochemical, bovine; settings: earlier finding, background section; read-out: IC50, inhibitor of tubulin polymerization
# Description: Electrophoretically homogeneous bovine brain tubulin was purified as described in E. Hamel, et al. Biochemistry 23:4173 (1984).
# The tubulin polymerization assay was performed as described in S. Kuo, et al. J. Med. Chem. 36:1146 (1993); L. Li, et al. J. Med. Chem. 37:1126 (1994); and L. Li J. Med. Chem. 37:3400 (1994). In brief, tubulin at 1.2 mg/ml (12 μM) was preincubated for 15 min at 26° C. in a 0.24-ml volume of 0.8 M monosodium glutamate (pH 6.6 with NaOH in a 2 M stock solution) with varying drug concentrations. The drug stock solutions were in DMSO, and the final solvent concentration was 4 % (v/v). All concentrations are in terms of the final reaction volume (0.25 ml). The reaction mixtures were chilled on ice, and 10 μl of 10 mM GTP was added to each reaction mixture. Samples were transferred to cuvettes held at 0° C. by an electronic temperature controller in Gilford spectrophotometers. Baselines were established at 350 nm, and polymerization initiated by a temperature jump to 26° C. The jump took about 50 sec to complete. After 20 min, turbidity readings were recorded, and the temperature controller was set to 0C. When depolymerization was complete, turbidity readings were again recorded. […] IC50 values were obtained graphically from inhibition of polymerization by different drug concentrations.
# Electrophoretically, homogeneous bovine brain tubulin was purified as described in Example 6.
# The tubulin polymerization assay was performed as described in Example 6.
# [3] = test system: central nervous system, lung, ovarian, colon, and renal cancers and melanoma and leukemia cell lines; assay: Cytotoxicity of isolated flavonol in panels of tumor cell lines; type: cell-based; settings: in vitro
# Text: In the course of this groups search for novel plant-derived potent cytotoxic agents that are active against slow-growing solid tumors, we have isolated several flavonols as antitumor principles from a phytochemically and biologically heretofore uninvestigated plant, Polanisia dodecandra. […]
# [4] = test system: NCI-H226 cell line; assay: NCI in vitro screen, NCI-H226; type: cell-based; settings: Homo sapiens, range over four compounds, read-out: log TGI
# Text: Compounds 41-51 and 53-68 were submitted to NCI and assayed in the NCI's in vitro disease-oriented antitumor screen, which involves determination of a test compound's effects on the growth of approximately 60 human tumor cell lines. See, M. R. Boyd, et al. In Cancer: Principles and Practice of Oncology Updates; De Vita, V. T., Hellman, S., Rosenberg, S. A., Eds; J. B. Lippincoft: Philadelphia, pp 1-12 (1989); and A. Monks, et al. J. Natl. Cancer Inst. 83:757 (1991). These lines include leukemia, non-small cell lung, colon, central nervous system (CNS), melanoma, ovarian, renal, prostate, and breast cancers.
# [5] = test system: 786-0 renal cancer cell line; assay: NCI in vitro screen, renal cancer 786-0; type: cell-based; settings: Homo sapiens, read-out: Cytotoxicity log GI50 (converted)
# [6] = test system: SF-295 CNS cancer cell line; assay: NCI in vitro screen, CNS cancer SF-295; type: cell-based; settings: Homo sapiens, read-out: Cytotoxicity log GI50 (converted)
# [7] = test system: NCI-H460 non-small cell lung cancer cell line; assay: NCI in vitro screen, non-small cell lung cancer NCI-H460; type: cell-based; settings: Homo sapiens, read-out: Cytotoxicity log GI50 (converted)
# [8] = test system: PC-3 prostate cancer cell line; assay: NCI in vitro screen, prostate cancer PC-3; type: cell-based; settings: Homo sapiens, read-out: Cytotoxicity log GI50 (converted)
# [9] = test system: HCT-116 colon cancer cell line; assay: NCI in vitro screen, colon cancer HCT-116; type: cell-based; settings: Homo sapiens; HCT-1.16 (head); HCT-116 (footnote); read-out: Cytotoxicity log GI50 (converted)
# [10] = test system: MDA-MB-435 breast cancer cell line; assay: NCI in vitro screen, breast cancer MDA-MB-435; type: cell-based; settings: Homo sapiens
# [11] = test system: OVCAR-3 ovarian cancer cell line; assay: NCI in vitro screen, ovarian cancer OVCAR-3; type: cell-based; settings: Homo sapiens, read-out: Cytotoxicity log GI50 (converted)
# [12] = test system: SK-MEL-5 melanoma cell line; assay: NCI in vitro screen, melanoma SK-MEL-5; type: cell-based; settings: Homo sapiens, read-out: Cytotoxicity log GI50 (converted)
# [13] = test system: HL-60(TB) leukemia cell line; assay: cells; type: cell-based; settings: Homo sapiens
# [14] = test system: NCI's 60 human tumor cell line; assay: NCI 60 human tumor cell line in vitro screen (average / whole panel); type: cell-based; settings: calculated from all cell lines tested, molar concentrations, read-out: average log GI50 (converted)
# [15] = test system: U-251 CNS cancer cell line; assay: NCI in vitro screen, CNS cancer U-251; type: cell-based; settings: Homo sapiens, read-out: Cytotoxicity log GI50 (converted)
# [16] = test system: MDA-N breast cancer cell line; assay: NCI in vitro screen, breast cancer MDA-N; type: cell-based; settings: Homo sapiens
# [17] = range over four compounds and two cell lines, read-out: log TGI
# [18] = read-out: Cytotoxicity log GI50 (converted)
compound,measurement,setting,value
"COc1ccc(-c2oc3c(OC)c(OC)c(OC)c(O)c3c(=O)c2OC)cc1O [5,3'-dihydroxy-3,6,7,8,4'-pentamethoxyflavone]",inhibition of radiolabeled colchicine binding to tubulin,"[1]; equimolar concentration with colchicine, background section",59%
same,IC50,[2],830 ± 200 nM
same,GI50 values,[3],low micromolar to nanomolar concentration range
COc1cccc(-c2cc(=O)c3cc(Cl)cnc3[nH]2)c1 [Compound 49],IC (TGI),[4],75.9 to 692 nM
same,GI50,[5],427 nM
same,GI50,[6],60.3 nM
same,GI50,[7],63.1 nM
same,GI50,[8],138 nM
same,GI50,[9],120 nM
same,IC (TGI),[10]; [17],21.4 to 39.8 nM
same,GI50,[10]; [18],32.4 nM
same,GI50,[11],490 nM
same,GI50,[12],126 nM
same,IC (TGI),"[13]; HL-60, H-60 cell line, range over four compounds, read-out: log TGI",39.8 to 64.6 nM
same,GI50,"[13]; HL-60(TB), read-out: Cytotoxicity log GI50 (converted)",26.9 nM
same,GI50,[14],97.7 nM
same,GI50,[15],200 nM
same,IC (TGI),[16]; [17],21.4 to 39.8 nM
same,GI50,[16]; [18],31.6 nM
"COc1ccc(/C=C\c2cc(OC)c(OC)c(OC)c2)cc1O [combretastatin A-4, Combretastatin A-4]",ICB (% Inhibition) (inhibition of colchicine binding),[1],91 ± 2%
"COc1cc([C@@H]2c3cc4c(cc3[C@H](O)[C@H]3COC(=O)[C@H]23)OCO4)cc(OC)c1OC [podophyllotoxin, reference compound]",ICB (% Inhibition) (inhibition of colchicine binding),[1],76 ± 5%
